Experimental data from paper PMC4256409, “Role of Phenylalanine and Valine^10 Residues in the Antimicrobial Activity and Cytotoxicity of Piscidin-1” (PLoS ONE, 2014).
Where no end group is shown, it is not given here.

tested on: E. coli KCTC1682; assay type: cell-based, Escherichia coli; details: KCTC1682, 16 h

Sequence | MIC [µM]
KFHHIFRGIKHVGKTIHRLVTG [Pis-F1K/V10K] | 1.0

tested on: E. coli KCTC2593; assay type: cell-based, Escherichia coli; details: KCTC2593, 16 h

Sequence | MIC [µM]
KFHHIFRGIKHVGKTIHRLVTG [Pis-F1K/V10K] | 2.0

tested on: E.coli KCTC2571; assay type: cell-based, Escherichia coli; details: KCTC2571, 16 h

Sequence | MIC [µM]
KFHHIFRGIKHVGKTIHRLVTG [Pis-F1K/V10K] | 2.0

tested on: P. aeruginosa KCTC1637; assay type: cell-based, Pseudomonas aeruginosa; details: KCTC1637, 16 h

Sequence | MIC [µM]
KFHHIFRGIKHVGKTIHRLVTG [Pis-F1K/V10K] | 1.0

tested on: P. aeruginosa KCTC2004; assay type: cell-based, Pseudomonas aeruginosa; details: KCTC2004, 16 h

Sequence | MIC [µM]
KFHHIFRGIKHVGKTIHRLVTG [Pis-F1K/V10K] | 2.0

tested on: P. aeruginosa KCTC2513; assay type: cell-based, Pseudomonas aeruginosa; details: KCTC2513, 16 h

Sequence | MIC [µM]
KFHHIFRGIKHVGKTIHRLVTG [Pis-F1K/V10K] | 2.0

tested on: S. typhimurium KCTC1926; assay type: cell-based, Salmonella typhimurium; details: KCTC1926, 16 h

Sequence | MIC [µM]
KFHHIFRGIKHVGKTIHRLVTG [Pis-F1K/V10K] | 1.0

tested on: B. subtilis KCTC3068; assay type: cell-based, Bacillus subtilis; details: KCTC3068, 16 h

Sequence | MIC [µM]
KFHHIFRGIKHVGKTIHRLVTG [Pis-F1K/V10K] | 1.0

tested on: B. subtilis KCTC1021; assay type: cell-based, Bacillus subtilis; details: KCTC1021, 16 h

Sequence | MIC [µM]
KFHHIFRGIKHVGKTIHRLVTG [Pis-F1K/V10K] | 4.0

tested on: B. subtilis KCTC1022; assay type: cell-based, Bacillus subtilis; details: KCTC1022, 16 h

Sequence | MIC [µM]
KFHHIFRGIKHVGKTIHRLVTG [Pis-F1K/V10K] | 2.0

tested on: S. epidermidis KCTC1917; assay type: cell-based, Staphylococcus epidermidis; details: KCTC1917, 16 h

Sequence | MIC [µM]
KFHHIFRGIKHVGKTIHRLVTG [Pis-F1K/V10K] | 1.0

tested on: S. aureus KCTC1621; assay type: cell-based, Staphylococcus aureus; details: KCTC1621, 16 h

Sequence | MIC [µM]
KFHHIFRGIKHVGKTIHRLVTG [Pis-F1K/V10K] | 2.0

tested on: S. aureus KCTC1916; assay type: cell-based, Staphylococcus aureus; details: KCTC1916, 16 h

Sequence | MIC [µM]
KFHHIFRGIKHVGKTIHRLVTG [Pis-F1K/V10K] | 2.0

tested on: S. aureus KCTC3881; assay type: cell-based, Staphylococcus aureus; details: KCTC3881, 16 h

Sequence | MIC [µM]
KFHHIFRGIKHVGKTIHRLVTG [Pis-F1K/V10K] | 2.0

tested on: MRSA CCARM3089; assay type: cell-based, Methicillin-resistant S. aureus; details: CCARM3089, 16 h

Sequence | MIC [µM]
KFHHIFRGIKHVGKTIHRLVTG [Pis-F1K/V10K] | 4.0

tested on: MRSA CCARM 3090; assay type: cell-based, Methicillin-resistant S. aureus; details: CCARM 3090, 16 h

Sequence | MIC [µM]
KFHHIFRGIKHVGKTIHRLVTG [Pis-F1K/V10K] | 4.0

tested on: MRSA CCARM 3108; assay type: cell-based, Methicillin-resistant S. aureus; details: CCARM 3108, 16 h

Sequence | MIC [µM]
KFHHIFRGIKHVGKTIHRLVTG [Pis-F1K/V10K] | 4.0

tested on: MRSA CCARM 3114; assay type: cell-based, Methicillin-resistant S. aureus; details: CCARM 3114, 16 h

Sequence | MIC [µM]
KFHHIFRGIKHVGKTIHRLVTG [Pis-F1K/V10K] | 8.0

tested on: MRSA CCARM 3126; assay type: cell-based, Methicillin-resistant S. aureus; details: CCARM 3126, 16 h

Sequence | MIC [µM]
KFHHIFRGIKHVGKTIHRLVTG [Pis-F1K/V10K] | 4.0

tested on: MDRST CCARM 8003; assay type: cell-based, multidrug-resistant S. typhimurium; details: broth microdilution, 37°C, 16 h, three independent experiments in triplicate, SD 14.0%

Sequence | MIC [µM]
KFHHIFRGIKHVGKTIHRLVTG [Pis-F1K/V10K] | 8.0

tested on: MDRST CCARM 8007; assay type: cell-based, multidrug-resistant S. typhimurium; details: broth microdilution, 37°C, 16 h, three independent experiments in triplicate, SD 14.0%

Sequence | MIC [µM]
KFHHIFRGIKHVGKTIHRLVTG [Pis-F1K/V10K] | 8.0

tested on: MDRST CCARM 8009; assay type: cell-based, multidrug-resistant S. typhimurium; details: broth microdilution, 37°C, 16 h, three independent experiments in triplicate, SD 14.0%

Sequence | MIC [µM]
KFHHIFRGIKHVGKTIHRLVTG [Pis-F1K/V10K] | 8.0

tested on: MDREC CCARM 1229; assay type: cell-based, multidrug-resistant E. coli; details: broth microdilution, 37°C, 16 h, three independent experiments in triplicate, SD 14.0%

Sequence | MIC [µM]
KFHHIFRGIKHVGKTIHRLVTG [Pis-F1K/V10K] | 4.0

tested on: MDREC CCARM 1238; assay type: cell-based, multidrug-resistant E. coli; details: broth microdilution, 37°C, 16 h, three independent experiments in triplicate, SD 14.0%

Sequence | MIC [µM]
KFHHIFRGIKHVGKTIHRLVTG [Pis-F1K/V10K] | 4.0

tested on: MDRAB CCARM 12005; assay type: cell-based, multidrug-resistant Acinetobacter baumanii; details: broth microdilution, 37°C, 16 h, three independent experiments in triplicate, SD 14.0%

Sequence | MIC [µM]
KFHHIFRGIKHVGKTIHRLVTG [Pis-F1K/V10K] | 2.0

tested on: MDRAB CCARM 12035; assay type: cell-based, multidrug-resistant Acinetobacter baumanii; details: broth microdilution, 37°C, 16 h, three independent experiments in triplicate, SD 14.0%

Sequence | MIC [µM]
KFHHIFRGIKHVGKTIHRLVTG [Pis-F1K/V10K] | 2.0

tested on: MDRAB CCARM 12036; assay type: cell-based, multidrug-resistant Acinetobacter baumanii; details: broth microdilution, 37°C, 16 h, three independent experiments in triplicate, SD 14.0%

Sequence | MIC [µM]
KFHHIFRGIKHVGKTIHRLVTG [Pis-F1K/V10K] | 2.0

tested on: MDRAB CCARM 12037; assay type: cell-based, multidrug-resistant Acinetobacter baumanii; details: broth microdilution, 37°C, 16 h, three independent experiments in triplicate, SD 14.0%

Sequence | MIC [µM]
KFHHIFRGIKHVGKTIHRLVTG [Pis-F1K/V10K] | 2.0

tested on: MDRPA CCARM 2002; assay type: cell-based, multidrug-resistant P. aeruginosa; details: broth microdilution, 37°C, 16 h, three independent experiments in triplicate, SD 14.0%

Sequence | MIC [µM]
KFHHIFRGIKHVGKTIHRLVTG [Pis-F1K/V10K] | 2.0

tested on: MDRPA CCARM 2003; assay type: cell-based, multidrug-resistant P. aeruginosa; details: broth microdilution, 37°C, 16 h, three independent experiments in triplicate, SD 14.0%

Sequence | MIC [µM]
KFHHIFRGIKHVGKTIHRLVTG [Pis-F1K/V10K] | 2.0

tested on: MDRPA CCARM 2095; assay type: cell-based, multidrug-resistant P. aeruginosa; details: broth microdilution, 37°C, 16 h, three independent experiments in triplicate, SD 14.0%

Sequence | MIC [µM]
KFHHIFRGIKHVGKTIHRLVTG [Pis-F1K/V10K] | 2.0

tested on: MDRPA CCARM 2163; assay type: cell-based, multidrug-resistant P. aeruginosa; details: broth microdilution, 37°C, 16 h, three independent experiments in triplicate, SD 14.0%

Sequence | MIC [µM]
KFHHIFRGIKHVGKTIHRLVTG [Pis-F1K/V10K] | 2.0

tested on: Standard bacterial strains; assay type: cell-based; details: average over the 14 standard bacterial strains of Table 2

Sequence | Average MIC [µM]
KFHHIFRGIKHVGKTIHRLVTG [Pis-F1K/V10K] | 1.8

tested on: Drug-resistant bacterial strains; details: average over the 18 drug-resistant bacterial strains of Table 3
From the text: Escherichia coli KCTC 1682, E. coli KCTC 2593, E. coli KCTC 2571, Salmonella typhimurium KCTC 1926, Pseudomonas aeruginosa KCTC 1637, P. aeruginosa KCTC 2004, P. aeruginosa KCTC 2513, Bacillus subtilis KCTC 3068, B. subtilis KCTC 1021, B. subtilis KCTC 1022, Staphylococcus epidermidis KCTC 1917, Staphylococcus aureus KCTC 1621, S. aureus KCTC 1916, and S. aureus KCTC 3881 were purchased from the Korean Collection for Type Cultures, Korea Research Institute of Bioscience & Biotechnology (Taejon, Korea). Methicillin-resistant S. aureus (MRSA) (CCARM 3089, CCARM 3090, CCARM 3108, CCARM 3114, and CCARM 3126), multidrug-resistant E. coli (MDREC) (CCARM 1229 and CCARM 1238), multidrug-resistant S. typhimurium (MDRST) (CCARM 8003, CCARM 8007, and CCARM 8009), multidrug-resistant Acinetobacter baumanii (MDRAB) (CCARM 12005, CCARM 12035, CCARM 12036, CCARM 12037), and multidrug-resistant P. aeruginosa (MDRPA) (CCARM 2002, CCARM 2003, CCARM 2095, and CCARM 2163) were obtained from the Culture Collection of Antibiotic-Resistant Microbes (CCARM) at Seoul Women’s University in Korea. The antimicrobial activities of the peptides against selected organisms, including three Gram-positive, three Gram-negative, and five antibiotic-resistant bacteria, were determined using a broth microdilution assay. Briefly, single colonies of bacteria and fungi were inoculated into Luria-Bertani (LB) medium and cultured overnight at 37°C. An aliquot of the culture was transferred to 10 mL of fresh LB and incubated for an additional 3–5 h at 37°C until it reached the mid-logarithmic phase. Two-fold serial dilutions of the peptides in 1% peptone were prepared. The serial dilutions (100 µL) were added to 100 µL of cells (2×10^6 colony-forming units (CFU)/mL) in 96-well microtiter plates and incubated at 37°C for 16 h. […] MIC values were calculated as the average of triplicate measurements from three independent assays.

Sequence | Average MIC [µM]
KFHHIFRGIKHVGKTIHRLVTG [Pis-F1K/V10K] | 4.0
